In paper PMC12775434, “Ultra-large virtual screening unveils potent agonists of the neuromodulatory orphan receptor GPR139” (Nature Communications, 2025):
Several values for one entry are separate records, joined by “and”; a condition that tells them apart may be missing. Identical values can stand only once.

Target: T1, GPR139 (Homo sapiens, UniProt Q6DWJ6)
T1 sequence (Q6DWJ6 1-353): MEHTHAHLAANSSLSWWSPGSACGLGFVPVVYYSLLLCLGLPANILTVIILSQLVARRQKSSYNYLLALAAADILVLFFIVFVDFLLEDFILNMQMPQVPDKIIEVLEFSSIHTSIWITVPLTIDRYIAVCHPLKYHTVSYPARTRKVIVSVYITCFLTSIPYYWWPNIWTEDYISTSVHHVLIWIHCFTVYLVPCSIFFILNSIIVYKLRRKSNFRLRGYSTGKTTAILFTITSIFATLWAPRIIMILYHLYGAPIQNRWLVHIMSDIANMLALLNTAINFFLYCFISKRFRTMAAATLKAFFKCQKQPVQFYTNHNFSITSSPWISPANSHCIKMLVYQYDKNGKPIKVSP
Test: Ca2+ mobilization assay, agonist mode, stable GPR139-CHOk1 cell line
Assay type: cell-based
Conditions: for fold improved potency compared to compound 1: Ca2+ mobilization EC50; for EC50: GPR139-CHOk1, read-out: EC50, Ca2+ mobilization; for Emax: Supplementary Table 2, normalized to Lundbeck Cmp 1a, mean ± SEM, read-out: Emax (%) Ca2+
How it was run: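 Agonist activity of compounds is assessed in stably transfected CHO-K1 cells using the calcium dye Fluo-4 at 37 °C in HEPES-buffered HBSS (pH 7.4). Efficacy is expressed relative to the reference agonist Lundbeck Cmp 1a, set as 100%.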

[1] = Agonist mode, individual replicates (Supplementary Figure 4)
[2] = log [Compound] M = -4.5, individual replicate columns
[3] = log [Compound] M = -5.0, individual replicate columns
[4] = log [Compound] M = -5.5, individual replicate columns
[5] = log [Compound] M = -6.0, individual replicate columns
[6] = log [Compound] M = -6.5, individual replicate columns
[7] = log [Compound] M = -7.0, individual replicate columns
[8] = log [Compound] M = -7.5, individual replicate columns
[9] = log [Compound] M = -8.0, individual replicate columns
[10] = log [Compound] M = -8.5, individual replicate columns
[11] = log [Compound] M = -9.0, individual replicate columns

Compound | Ca2+ signal (% of Cmp 1a) [1] | fold improved potency compared to compound 1 [fold] | EC50 [nM] | Emax [%] | Ca2+ signal (% of Cmp 1a) [2] | Ca2+ signal (% of Cmp 1a) [3] | Ca2+ signal (% of Cmp 1a) [4] | Ca2+ signal (% of Cmp 1a) [5] | Ca2+ signal (% of Cmp 1a) [6] | Ca2+ signal (% of Cmp 1a) [7] | Ca2+ signal (% of Cmp 1a) [8] | Ca2+ signal (% of Cmp 1a) [9] | Ca2+ signal (% of Cmp 1a) [10] | Ca2+ signal (% of Cmp 1a) [11] | also measured
Cc1cscc1-c1nc(CC(=O)NC(C)c2ccccc2)no1 (stereo not drawn) [Compound 1.1, CC(C1=CC=CC=C1)NC(CC2=NOC(C3=CSC=C3C)=N2)=O] | 96 % of Cmp 1a and 101 % of Cmp 1a and 83 % of Cmp 1a | 3 | 50 | 125 ± 12 | 130 % of Cmp 1a and 133 % of Cmp 1a and 104 % of Cmp 1a and 91 % of Cmp 1a | 136 % of Cmp 1a and 130 % of Cmp 1a and 133 % of Cmp 1a and 83 % of Cmp 1a | 124 % of Cmp 1a and 109 % of Cmp 1a and 177 % of Cmp 1a and 86 % of Cmp 1a | 113 % of Cmp 1a and 116 % of Cmp 1a and 167 % of Cmp 1a and 85 % of Cmp 1a | 103 % of Cmp 1a and 101 % of Cmp 1a and 147 % of Cmp 1a and 66 % of Cmp 1a | 80 % of Cmp 1a and 83 % of Cmp 1a and 116 % of Cmp 1a and 48 % of Cmp 1a | 60 % of Cmp 1a and 56 % of Cmp 1a and 80 % of Cmp 1a and 40 % of Cmp 1a | 36 % of Cmp 1a and 26 % of Cmp 1a and 21 % of Cmp 1a and 24 % of Cmp 1a | 21 % of Cmp 1a and 9 % of Cmp 1a and -4 % of Cmp 1a and 18 % of Cmp 1a | 19 % of Cmp 1a and 13 % of Cmp 1a and -16 % of Cmp 1a and 5.33 % of Cmp 1a | Ca2+ signal (% of Cmp 1a) (log [Compound] M -4.5, replicate experiments): 130 % of Cmp 1a and 133 % of Cmp 1a and 104 % of Cmp 1a and 91 % of Cmp 1a; Ca2+ signal (% of Cmp 1a) (log [Compound] M -5.0, replicate experiments): 136 % of Cmp 1a and 130 % of Cmp 1a and 133 % of Cmp 1a and 83 % of Cmp 1a; Ca2+ signal (% of Cmp 1a) (log [Compound] M -5.5, replicate experiments): 124 % of Cmp 1a and 109 % of Cmp 1a and 177 % of Cmp 1a and 86 % of Cmp 1a; Ca2+ signal (% of Cmp 1a) (log [Compound] M -6.0, replicate experiments): 113 % of Cmp 1a and 116 % of Cmp 1a and 167 % of Cmp 1a and 85 % of Cmp 1a; Ca2+ signal (% of Cmp 1a) (log [Compound] M -6.5, replicate experiments): 103 % of Cmp 1a and 101 % of Cmp 1a and 147 % of Cmp 1a and 66 % of Cmp 1a; Ca2+ signal (% of Cmp 1a) (log [Compound] M -7.0, replicate experiments): 80 % of Cmp 1a and 83 % of Cmp 1a and 116 % of Cmp 1a and 48 % of Cmp 1a; Ca2+ signal (% of Cmp 1a) (log [Compound] M -7.5, replicate experiments): 60 % of Cmp 1a and 56 % of Cmp 1a and 80 % of Cmp 1a and 40 % of Cmp 1a; Ca2+ signal (% of Cmp 1a) (log [Compound] M -8.0, replicate experiments): 36 % of Cmp 1a and 26 % of Cmp 1a and 21 % of Cmp 1a and 24 % of Cmp 1a; Ca2+ signal (% of Cmp 1a) (log [Compound] M -8.5, replicate experiments): 21 % of Cmp 1a and 9 % of Cmp 1a and -4 % of Cmp 1a and 18 % of Cmp 1a; Ca2+ signal (% of Cmp 1a) (log [Compound] M -9.0, replicate experiments): 19 % of Cmp 1a and 13 % of Cmp 1a and -16 % of Cmp 1a and 5.33 % of Cmp 1a
COc1ccccc1-c1nc(CC(=O)NC(C)c2ccccc2)no1 (stereo not drawn) [Compound 1.2, COC1=C(C2=NC(CC(NC(C3=CC=CC=C3)C)=O)=NO2)C=CC=C1] | 84 % of Cmp 1a and 90 % of Cmp 1a and 64 % of Cmp 1a | 3 | 50 | 116 ± 6 | 101 % of Cmp 1a and 98 % of Cmp 1a and 89 % of Cmp 1a and 111 % of Cmp 1a and 113 % of Cmp 1a | 95 % of Cmp 1a and 88 % of Cmp 1a and 96 % of Cmp 1a and 108 % of Cmp 1a (2×) | 86 % of Cmp 1a and 100 % of Cmp 1a and 98 % of Cmp 1a and 101 % of Cmp 1a and 103 % of Cmp 1a | 77 % of Cmp 1a (2×) and 83 % of Cmp 1a and 90 % of Cmp 1a and 93 % of Cmp 1a | 65 % of Cmp 1a and 81 % of Cmp 1a and 77 % of Cmp 1a and 70 % of Cmp 1a and 86 % of Cmp 1a | 63 % of Cmp 1a (2×) and 64 % of Cmp 1a and 53 % of Cmp 1a and 56 % of Cmp 1a | 46 % of Cmp 1a and 38 % of Cmp 1a and 39 % of Cmp 1a and 41 % of Cmp 1a and 52 % of Cmp 1a | 14 % of Cmp 1a and 11 % of Cmp 1a (2×) and 15 % of Cmp 1a and 18 % of Cmp 1a | 3.23 % of Cmp 1a and -2.25 % of Cmp 1a and 2.37 % of Cmp 1a and 7.37 % of Cmp 1a and 3.35 % of Cmp 1a | 5 % of Cmp 1a and -0.0349 % of Cmp 1a and -0.541 % of Cmp 1a and 0.358 % of Cmp 1a and 0.331 % of Cmp 1a | 
Cc1nocc1-c1nc(CC(=O)NC(C)c2ccccc2)no1 (stereo not drawn) [Compound 1.5, CC(C1=CC=CC=C1)NC(CC2=NOC(C3=CON=C3C)=N2)=O] | 113 % of Cmp 1a and 100 % of Cmp 1a and 116 % of Cmp 1a |  | 130 | 103 ± 6 | 80 % of Cmp 1a and 113 % of Cmp 1a and 109 % of Cmp 1a and 101 % of Cmp 1a | 104 % of Cmp 1a and 119 % of Cmp 1a and 100 % of Cmp 1a and 95 % of Cmp 1a | 91 % of Cmp 1a and 108 % of Cmp 1a and 100 % of Cmp 1a and 85 % of Cmp 1a | 78 % of Cmp 1a and 79 % of Cmp 1a and 91 % of Cmp 1a and 81 % of Cmp 1a | 55 % of Cmp 1a and 74 % of Cmp 1a and 73 % of Cmp 1a and 76 % of Cmp 1a | 36 % of Cmp 1a and 45 % of Cmp 1a and 52 % of Cmp 1a and 57 % of Cmp 1a | 14 % of Cmp 1a and 3.67 % of Cmp 1a and 9 % of Cmp 1a and 12 % of Cmp 1a | 17 % of Cmp 1a and 2 % of Cmp 1a and 47 % of Cmp 1a and -11 % of Cmp 1a | 10 % of Cmp 1a and -6.33 % of Cmp 1a and 1 % of Cmp 1a and -17 % of Cmp 1a | -2.67 % of Cmp 1a and 0.333 % of Cmp 1a and -5 % of Cmp 1a and -15 % of Cmp 1a | 
